Reference: article PMC11676671, “Simultaneous Down-Regulation of Dominant Cinnamoyl CoA Reductase and Cinnamyl Alcohol Dehydrogenase Dramatically Altered Lignin Content in Mulberry” (Plants, 2024)

Tested on: T1, MaCCR1
T1 construct: full-length CDS in pET-28a, His-tagged, expressed in E. coli BL21(DE3)
Experiment: absorbance decrease of substrate, microplate reader, non-linear fit
Type: biochemical, Morus alba
Excerpt: absorbance decrease of substrate, microplate reader, non-linear fit on MaCCR1

In the case of `COc1cc(/C=C/C(=O)SCCNC(=O)CCNC(=O)[C@H](O)C(C)(C)COP(=O)(O)OP(=O)(O)OC[C@H]2O[C@@H](n3cnc4c(N)ncnc43)[C@H](O)[C@@H]2OP(=O)(O)O)ccc1O` [feruloyl CoA], the Km (pH and temperature of the kinetic assay not printed (optimum pH 6.0, 20 °C with feruloyl CoA)) is reported as 62.6 µM.
With `COc1cc(/C=C/C(=O)SCCNC(=O)CCNC(=O)[C@H](O)C(C)(C)COP(=O)(O)OP(=O)(O)OC[C@H]2O[C@@H](n3cnc4c(N)ncnc43)[C@H](O)[C@@H]2OP(=O)(O)O)cc(OC)c1O` [sinapyl-CoA] the Km (pH and temperature of the kinetic assay not given) was 160 µM.
